Patent US20220218707A1, “USE OF COMPOSITION OF IMATINIB OR DERIVATIVE THEREOF IN PREPARATION OF DRUG FOR PREVENTING, TREATING, AND CONTROLLING ADDICTION RELAPSE” (Wuhan University, priority 2019, published 2022)
Counter-ions that a name gives are not always drawn. Like-named read-outs stand apart in the source and are kept apart here.

What was measured:
c-Kit [1] = target: T1, c-Kit (Rattus norvegicus, UniProt F7EWK5); details: acute ethanol administration
SD rats [2] = system: SD rats
SD rats [3] = details: imatinib mesylate 1, 5, 10, 20, and 30 mg/kg i.p.
SD rats [4] = assay: Development of high-sugar and high-fat food-induced CPP; assay type: in vivo
SD rats [5] = assay: Ethanol sensitization model; assay type: in vivo; details: imatinib mesylate 15, 20, or 30 mg/kg
SD rats [6] = assay: Morphine sensitization model (spontaneous activity); assay type: in vivo
SD rats [7] = system: SD rats; remark: listed apart in the source
Text: Groups: A total of 14 groups (n=10) were included.
The rest process was the same as that in Example 3.

SD rats [8] = system: SD rats; remark: listed apart in the source
SD rats [9] = details: imatinib mesylate 1, 5, 10, 20, or 30 mg/kg i.p.
SD rats [10] = system: SD rats; remark: listed apart in the source
SD rats [11] = details: for morphine tolerance and heat pain threshold in CFA rats: day 6 after model establishment
SD rats [12] = assay: Nicotine withdrawal symptoms (spontaneous activity); assay type: in vivo
Text: Test instrument: Conditional place preference (CPP) test apparatus (the same as that in Example 19); and spontaneous activity detecting apparatus (developed by the Institute of Chinese Materia Medica, China Academy of Chinese Medical Sciences). The test was automatically controlled by a computer. The apparatus includes four spontaneous activity observation chamber, a video synthesizer, a video pattern sampling card, and analysis software. The system performs video tracking of the rat activity and automatically records the rat activity track and activity times. The spontaneous activity evaluation index is the total activity times in a certain period of time (such as 60 min), and an increase in the total activity times indicates an increase in spontaneous activity. […] In addition, a physiological saline+physiological saline group without nicotine treatment was used as the control group. […] After 60 min, a spontaneous activity detecting apparatus was used to detect the spontaneous activities.

SD rats [13] = details: for drug-seeking behavior and relapse after cocaine addiction: imatinib mesylate 20 and 30 mg/kg
SD rats [14] = system: SD rats; remark: listed apart in the source
SD rats [15] = system: SD rats; remark: listed apart in the source
SD rats [16] = details: direct administration; any dose of imatinib mesylate
[17] = Naloxone-precipitated withdrawal symptoms after morphine-induced CPP (jump times, body weight); details: imatinib mesylate 15, 30, and 45 mg/kg with morphine 5 mg/kg, naloxone 2 mg/kg s.c.; combination or compound preparation
c-Kit [18] = target: T1, c-Kit; details: acute morphine 10 mg/kg s.c.; not in other brain regions
c-Kit [19] = target: T1, c-Kit; details: acute nicotine 0.5 mg/kg s.c.; not in other brain regions
[20] = imatinib mesylate 1, 5, and 10 mg/kg, ethanol 0.75 g/kg for training CPP
[21] = imatinib mesylate 1 and 5 mg/kg, ethanol 0.5 g/kg for training CPP
[22] = imatinib mesylate 10, 15, 20, and 30 mg/kg, ethanol 0.5 g/kg for training CPP
[23] = imatinib mesylate 15, 20, and 30 mg/kg, ethanol 0.75 g/kg for training CPP

T1 sequence (F7EWK5 26-978): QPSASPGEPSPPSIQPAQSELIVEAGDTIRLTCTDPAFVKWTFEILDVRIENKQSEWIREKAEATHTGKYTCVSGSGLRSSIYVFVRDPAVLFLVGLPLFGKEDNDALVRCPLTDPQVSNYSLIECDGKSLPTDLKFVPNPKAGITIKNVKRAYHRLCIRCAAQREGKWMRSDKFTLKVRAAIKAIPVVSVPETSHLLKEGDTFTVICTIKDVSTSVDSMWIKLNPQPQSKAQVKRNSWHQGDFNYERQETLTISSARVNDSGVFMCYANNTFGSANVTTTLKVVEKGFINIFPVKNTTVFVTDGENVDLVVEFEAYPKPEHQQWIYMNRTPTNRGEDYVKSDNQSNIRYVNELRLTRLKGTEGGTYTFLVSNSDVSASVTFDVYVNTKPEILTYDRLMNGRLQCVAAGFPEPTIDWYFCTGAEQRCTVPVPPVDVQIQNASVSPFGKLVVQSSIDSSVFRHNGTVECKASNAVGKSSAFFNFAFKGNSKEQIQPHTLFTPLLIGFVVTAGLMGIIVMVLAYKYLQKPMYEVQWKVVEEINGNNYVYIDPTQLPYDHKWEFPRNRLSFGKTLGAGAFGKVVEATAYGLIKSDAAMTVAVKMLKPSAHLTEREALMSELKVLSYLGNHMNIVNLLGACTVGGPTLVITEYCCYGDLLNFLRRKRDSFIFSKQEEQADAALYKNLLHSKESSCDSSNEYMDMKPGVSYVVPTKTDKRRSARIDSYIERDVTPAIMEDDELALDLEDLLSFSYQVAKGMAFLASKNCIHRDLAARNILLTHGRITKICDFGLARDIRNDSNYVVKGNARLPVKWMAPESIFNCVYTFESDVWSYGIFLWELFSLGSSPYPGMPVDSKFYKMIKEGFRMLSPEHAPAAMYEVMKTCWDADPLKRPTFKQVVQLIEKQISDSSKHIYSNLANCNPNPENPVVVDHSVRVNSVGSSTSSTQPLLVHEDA

## CCO [ethanol]
c-Kit [1]
  activation of c-kit receptor in neurons in nucleus accumbens: specifically activated

## Cc1ccc(NC(=O)c2ccc(CN3CCN(C)CC3)cc2)cc1Nc1nccc(-c2cccnc2)n1 [imatinib mesylate]
SD rats [2]; imatinib mesylate 1, 5, and 10 mg/kg i.p., morphine 10 mg/kg for training CPP
  CPP (drug-seeking behavior) after morphine addiction: no obvious effect
SD rats [2]; imatinib mesylate 1 and 5 mg/kg i.p., morphine 5 mg/kg for training CPP
  CPP (drug-seeking behavior) after morphine addiction: no obvious effect
SD rats [2]; imatinib mesylate 10, 20, and 30 mg/kg i.p., morphine 5 mg/kg for training CPP
  CPP (drug-seeking behavior) after morphine addiction: can significantly relieve CPP and prevent it from being primed
SD rats [2]; imatinib mesylate 20 and 30 mg/kg i.p., morphine 10 mg/kg for training CPP
  CPP (drug-seeking behavior) after morphine addiction: can significantly relieve CPP and prevent it from being primed
SD rats [3]
  HPT, imatinib mesylate+physiological saline compared with physiological saline+physiological saline: no obvious change
SD rats [3]; morphine 10 mg/kg s.c.
  heat pain threshold, imatinib mesylate+morphine compared with morphine+physiological saline: no obvious change
SD rats [4]; imatinib mesylate 1, 5, and 10 mg/kg i.p.
  development of addiction to high-sugar and high-fat food (CPP): no significant effect on the development of addiction to high-sugar and high-fat food
SD rats [4]; imatinib mesylate 20 and 30 mg/kg i.p.
  development of addiction to high-sugar and high-fat food (CPP): can significantly inhibit the development of addiction to high-sugar and high-fat food
SD rats [5]; ethanol 0.75 g/kg for 5 consecutive days
  development of ethanol sensitization: the development of ethanol sensitization in rats is inhibited
SD rats [5]; ethanol challenge on day 11
  expression of ethanol sensitization: the expression of ethanol sensitization in rats is inhibited
SD rats [6]; imatinib mesylate 30 mg/kg i.p. on day 11 before morphine 5 mg/kg challenge
  expression of morphine sensitization: the expression of morphine sensitization in rats is inhibited
SD rats [6]; imatinib mesylate 30 mg/kg with morphine 10 mg/kg for 5 consecutive days
  development of morphine sensitization: the development of morphine sensitization in rats is inhibited
SD rats [7]; [20]
  CPP (drug-seeking behavior) after ethanol addiction: no obvious effect
SD rats [7]; [21]
  CPP (drug-seeking behavior) after ethanol addiction: no obvious effect
SD rats [7]; [22]
  CPP (drug-seeking behavior) after ethanol addiction: can significantly relieve CPP and prevent it from being primed
SD rats [7]; [23]
  CPP (drug-seeking behavior) after ethanol addiction: can significantly relieve CPP and prevent it from being primed
SD rats [8]; direct administration of imatinib mesylate
  priming (relapse) after challenge with a small dose of ethanol: are all primed
SD rats [8]; imatinib mesylate 15 and 30 mg/kg, ethanol 0.75 g/kg for training CPP
  CPP after ethanol addiction, all treatment groups: can significantly reduce the CPP
SD rats [8]; unconditioned stimulus ethanol 0.5 g/kg, imatinib mesylate 20 and 30 mg/kg
  drug-seeking behavior and relapse after ethanol addiction: can only inhibit the drug-seeking behavior, and cannot prevent relapse
SD rats [9]
  hind paw licking time, imatinib mesylate+physiological saline compared with physiological saline+physiological saline: no obvious changes
SD rats [9]; morphine 10 mg/kg s.c.
  hind paw licking time, imatinib mesylate+morphine compared with morphine+physiological saline: no obvious changes
SD rats [10]; direct administration, all doses of imatinib mesylate
  priming with high-sugar and high-fat food after 1 week: cannot prevent the rats from being primed
SD rats [10]; imatinib mesylate 10, 20, and 30 mg/kg, substance cue, environmental cue or direct administration
  food-seeking behavior (CPP): can inhibit the food-seeking behavior
SD rats [11]; imatinib mesylate 1, 5, and 10 mg/kg
  morphine tolerance and heat pain threshold in CFA rats: have no this effect
SD rats [11]; imatinib mesylate 20 and 30 mg/kg
  morphine tolerance and heat pain threshold in CFA rats: can significantly prevent the development of morphine tolerance
SD rats [11]; days 4 and 5 after model establishment, morphine 10 mg/kg s.c.
  heat pain threshold, imatinib mesylate+morphine compared with morphine+physiological saline: no obvious change
SD rats [12]; imatinib mesylate 10, 20, and 30 mg/kg, addiction trained by 0.25 mg/kg of nicotine
  nicotine withdrawal symptoms (spontaneous activities): can differently alleviate the withdrawal symptoms
SD rats [12]; imatinib mesylate 20 and 30 mg/kg, addiction trained by 0.5 mg/kg of nicotine
  nicotine withdrawal symptoms (spontaneous activities): can alleviate the withdrawal symptoms
SD rats [13]; direct administration of imatinib mesylate 20 and 30 mg/kg
  priming (relapse) after cocaine addiction: the rats are still primed
SD rats [13]; unconditioned stimulus cocaine 3 mg/kg
  drug-seeking behavior and relapse after cocaine addiction: can prevent the drug-seeking behavior and relapse
SD rats [13]; unconditioned stimulus cocaine 4 mg/kg
  drug-seeking behavior and relapse after cocaine addiction: can only inhibit the drug-seeking behavior, and cannot prevent relapse
SD rats [14]; [20]
  development of ethanol-induced CPP: no significant effect on the development of CPP
SD rats [14]; [21]
  development of ethanol-induced CPP: no significant effect on the development of CPP
SD rats [14]; [22]
  development of ethanol-induced CPP: can significantly relieve CPP
SD rats [14]; [23]
  development of ethanol-induced CPP: can significantly relieve CPP
SD rats [15]; 1, 5, and 10 mg/kg i.p., morphine 10 mg/kg s.c.
  morphine tolerance (heat pain threshold): do not have this inhibitory effect
SD rats [15]; 20 and 30 mg/kg i.p., morphine 10 mg/kg s.c.
  morphine tolerance (heat pain threshold): can prevent the development of CPP
SD rats [15]; 20 and 30 mg/kg i.p., morphine 10 mg/kg s.c., listed as Imatinib sulfonate
  morphine tolerance (heat pain threshold): can significantly reduce the expression of morphine-induced tolerance
SD rats [15]; dose ratio to morphine 2:1 or greater
  minimum dose of imatinib mesylate preventing morphine tolerance: 10 mg/kg
SD rats [15]; imatinib mesylate 10, 20, and 30 mg/kg, tolerance induced by 5 mg/kg morphine
  morphine tolerance (heat pain threshold): can prevent the development of morphine tolerance
SD rats [15]; low dose of 5 mg/kg, rats
  treatment and prevention of morphine tolerance: can be used in the treatment and prevention of morphine tolerance in rats
SD rats [16]
  gambling behavior (choice): no significant effect
[17]
  morphine withdrawal symptoms (jump times, changes in body weight): can alleviate the withdrawal symptoms

## CNC1(C)C2CCC(C2)C1(C)C (centres unmarked) [mecamylamine]
SD rats [12]; mecamylamine 0.5 mg/kg, withdrawal symptoms aroused
  spontaneous activities of rats with nicotine addiction: the spontaneous activities decreases significantly

## CN1CC[C@]23c4c5ccc(O)c4O[C@H]2[C@@H](O)C=C[C@H]3[C@H]1C5 [morphine]
c-Kit [18]
  activation of c-kit receptor and downstream signaling molecules in neurons in nucleus accumbens: specifically activated

## CN1CCCC1c1cccnc1 (centres unmarked) [nicotine]
c-Kit [19]
  activation of c-kit receptor and downstream signaling molecules in neurons in nucleus accumbens: specifically activated
